This is an account of results in paper PMC4293787 (The Scientific World Journal, 2014).

A word on the EC50: it is the concentration giving half of the maximal effect. Broadly, the melting point is the temperature, or range, at which the solid turns liquid.

Data set [1] deals with herpes simplex virus 1 (HSV-1). The data set is described as follows: microbe, parasite or virus in culture. In kind it is cell-based, strain E-377. More on the design: SI50: unit not given beside the values. Conditions: for EC50: Human alphaherpesvirus 1, HFF.
For data set [2], the system named is herpes simplex virus 2 (HSV-2). In words: Antiviral test against HSV-2 in HFF cells (crystal violet). In kind it is cell-based, strain MS. More on the design: SI50: unit not given beside the values.
The nature of data set [3]: Toxicity (CC50) in the HSV-1 test, HFF cells (crystal violet). To be noted: human.
Data set [4] in a line: Toxicity (CC50) in the HSV-2 test, HFF cells (crystal violet). Conditions: human.
In the next data set the test system is hepatitis B virus (HBV). In words: Antiviral test against HBV in HepG 2.2.2.15 cells. Details: SI50: unit not given beside the values. The data set is classed as cell-based, strain ayw1. Conditions: for SI50: HBV, HepG 2.2.2.15 cells.
In data set [5] the test system is influenza A H1N1 virus. In words: Antiviral test against influenza A H1N1 in MDCK cells, visual (cytopathic effect). In kind it is cell-based, strain California 07/2009. More on the design: SI50: unit not given beside the values. To be noted: for EC50: Influenza A virus, H1N1, MDCK.
For data set [6], the system named is influenza A H1N1 virus. The data set is described as follows: Antiviral test against influenza A H1N1 in MDCK cells, neutral red (cytopathic effect). The data set is classed as cell-based, strain California 07/2009. More on the design: SI50: unit not given beside the values. Conditions: for EC50: Influenza A virus, H1N1, MDCK.
The nature of data set [7]: in vitro. To be noted: human.
The nature of data set [8]: in vitro. To be noted: human. The source holds these as a separate data set.
The nature of data set [9]: in vitro. To be noted: dog, MDCK cells.
Data set [10] is described as follows: in vitro. To be noted: dog, MDCK cells. The source holds these as a separate data set.
In a further data set the test system is vaccinia virus (VV). In words: microbe, parasite or virus in culture. The data set is classed as cell-based, strain Copenhagen. To be noted: Orthopoxvirus vaccinia, HFF.
The mark [11] stands for this setting: Hepatitis B virus, HepG2 2.2.15.

SMILES strings stand for the structures. Converted amounts (≈) assume the structure as drawn. Where two headings read alike, the source gives them in different places. A value given as a limit tells only on which side of the number the result lay.

Consider `Nc1nc2c(ncn2COCCO)c(=O)[nH]1` [acyclovir], for which the SI50 is on record as more than 30 in data set [1] and more than 27 in data set [2]. The EC50 amounted to 3.29 µM in [1] and 3.7 µM in data set [2] (Human alphaherpesvirus 2, HFF). For the same compound, the CC50 in data set [3] and in data set [4] was more than 100 µM each time.
`O=C(NC1C=CC(O)CC1)c1ccc2ccccc2n1` (stereo not drawn) [Compound 14d, N-(4-Hydroxycyclohex-2-enyl)quinoline-2-carboxamide] showed a melting point of 80 to 84 °C. In addition, the SI50 in the data set with hepatitis B virus (HBV) is 1. The compound further showed an EC50 with hepatitis B virus (HBV) (setting [11]) of more than 20 µM. Further, the EC50 with influenza A H1N1 virus [5] came out at 37 µg/mL (≈ 138 µM). Besides, the SI50 in the data set with influenza A H1N1 virus [5] (influenza A H1N1, MDCK cells, visual) is listed as more than 2.7. This compound also registered a 50% effective concentration (EC50) in the data set on influenza A H1N1 virus [6] of 54 µg/mL (≈ 201 µM). Besides, the SI50 with influenza A H1N1 virus [6] (influenza A H1N1, MDCK cells, neutral red) is 1.4. This compound displayed a CC50 in the data set “in vitro [7]” of more than 20 µM.
As for `O=C(NC1C=CC(O)C1)c1cccnc1` (stereo not drawn) [Compound 13b, N-(4-Hydroxycyclopent-2-enyl)nicotinamide], the melting point lay in the range of 125 to 127 °C. Also, in the data set on influenza A H1N1 virus [5], the EC50 was more than 100 µg/mL. This compound also displayed a concentration giving a half-maximal response (EC50) with influenza A H1N1 virus [6] of more than 100 µg/mL. Further, the CC50 in the data set “in vitro [8]” is more than 300 µM. For the same compound, the CC50 in “in vitro [9]” is more than 100 µg/mL. For the same compound, the CC50 in “in vitro [10]” is more than 100 µg/mL.
Take `O=C(NC1C=CC(O)C1)c1ccccn1` (stereo not drawn) [Compound 13a, N-(4-Hydroxycyclopent-2-enyl)picolinamide]: the EC50 in the data set on influenza A H1N1 virus [5] and in the data set on influenza A H1N1 virus [6] was more than 100 µg/mL each time. Further, the CC50 in “in vitro [9]” and in the data set “in vitro [10]” was more than 100 µg/mL each time.
Regarding `NC(=O)c1ncn([C@@H]2O[C@H](CO)[C@@H](O)[C@H]2O)n1` [Ribavirin, reference compound], in the data set on influenza A H1N1 virus [5], the SI50 is listed as more than 31 and the EC50 came out at 3.2 µg/mL (≈ 13.1 µM). In the data set with influenza A H1N1 virus [6], this compound yielded an SI50 of 14 and a half-maximal effective concentration (EC50) of 3.1 µg/mL (≈ 12.7 µM).
Take `O=C(NC1C=CC(O)CC1)c1ccccn1` (stereo not drawn) [Compound 14a, N-(4-Hydroxycyclohex-2-enyl)picolinamide]: in the data set with hepatitis B virus (HBV), the SI50 is reported as 1. The values for the 50% effective concentration (EC50) in the data set with hepatitis B virus (HBV) (setting [11]), in the data set with influenza A H1N1 virus [5] and in the data set on influenza A H1N1 virus [6] were more than 20 µM, more than 100 µg/mL and more than 100 µg/mL, respectively. Further, the CC50 is more than 20 µM in the data set “in vitro [7]”, more than 100 µg/mL in the data set “in vitro [9]” and more than 100 µg/mL in “in vitro [10]”.
`O=C(NC1C=CC(O)C1)c1ccc2ccccc2n1` (stereo not drawn) [Compound 13d, N-(4-Hydroxycyclopent-2-enyl)quinoline-2-carboxamide] came in with a melting point of 89 to 90 °C. The EC50 in the data set on influenza A H1N1 virus [5] is more than 100 µg/mL. This compound also came in with a concentration giving a half-maximal response (EC50) with influenza A H1N1 virus [6] of more than 100 µg/mL. In “in vitro [9]”, this compound yielded a CC50 of more than 100 µg/mL. The compound further had a CC50 in “in vitro [10]” of more than 100 µg/mL.
In the case of `Nc1ccn([C@@H]2CS[C@H](CO)O2)c(=O)n1` [Compound 3TC, 3TC, reference compound], the EC50 in the data set on hepatitis B virus (HBV) (HBV strain ayw1, drug concentration range 0.063–20 μM, 3TC control range 0.00032–0.1 μM, read-out: EC50) turned out to be 0.01 µM.
As to `O=C(NC1C=CC(O)C1)c1ccncc1` (stereo not drawn) [Compound 13c, N-(4-Hydroxycyclopent-2-enyl)isonicotinamide], the melting point fell in the range of 170 to 175 °C. The compound also registered an EC50 in the data set with influenza A H1N1 virus [5] of more than 100 µg/mL. Further, the EC50 in the data set with influenza A H1N1 virus [6] is more than 100 µg/mL. The same compound displayed a CC50 in the data set “in vitro [8]” of more than 300 µM. Moreover, the CC50 in the data set “in vitro [9]” is more than 100 µg/mL. The CC50 in “in vitro [10]” was more than 100 µg/mL.
`O=C(NC1C=CC(O)CC1)c1cccnc1` (stereo not drawn) [Compound 14b, N-(4-Hydroxycyclohex-2-enyl)nicotinamide] returned a melting point of 95 to 99 °C. Also, the SI50 in the data set with hepatitis B virus (HBV) is 1. In the data set on hepatitis B virus (HBV) (setting [11]), this compound returned an EC50 of more than 20 µM. Further, the EC50 in the data set with influenza A H1N1 virus [5] was more than 100 µg/mL. The compound further displayed an EC50 in the data set with influenza A H1N1 virus [6] of more than 100 µg/mL. In the data set “in vitro [7]”, this compound came in with a CC50 of more than 20 µM. For the same compound, the CC50 in “in vitro [9]” was more than 100 µg/mL. In the data set “in vitro [10]”, the CC50 was more than 100 µg/mL.
Regarding `O=C(NC1C=CC(O)CC1)c1ccncc1` (stereo not drawn) [Compound 14c, N-(4-Hydroxycyclohex-2-enyl)isonicotinamide], the melting point was 245 to 250 °C (dec.). Further, the SI50 in the data set on hepatitis B virus (HBV) turned out to be 1. For the same compound, the midpoint of the response in the data set on hepatitis B virus (HBV) (setting [11]), the EC50, lay at 9.64 µM. This compound also showed an EC50 with influenza A H1N1 virus [5] of more than 100 µg/mL. Besides, the 50% effective concentration (EC50) with influenza A H1N1 virus [6] is more than 100 µg/mL. For the same compound, the CC50 in the data set “in vitro [7]” was more than 100 µM. Moreover, in the data set “in vitro [9]”, the CC50 was more than 100 µg/mL. Also, in “in vitro [10]”, the CC50 is more than 100 µg/mL.
For `Nc1ccn(C[C@@H](CO)OCP(=O)(O)O)c(=O)n1` [cidofovir], the SI50 in data set [1] (HSV-1, HFF cells) was more than 1; in the data set with hepatitis B virus (HBV) it was more than 1. The figures for the EC50 (in [1]; with vaccinia virus (VV); in the data set on hepatitis B virus (HBV) (setting [11])) were 180 µM, 6.07 µM and 180 µM, respectively. This compound gave a CC50 in data set [3] of more than 200 µM.
